The NIST ThermoML archive (doi:10.1016/j.jct.2014.05.015)
± gives the expanded uncertainty stated by the source.

Test: mn = molality of the nth substance listed, in mol/kg
Conditions: 100 kPa, Liquid; for speed of sound: Frequency=3 MHz, Sing-around technique in a fixed-path interferometer; for mass density: Vibrating tube method

Q: Which results are given for C[N+](C)(C)CC(=O)O.[Cl-] [betaine hydrochloride] + O?
A: speed of sound (293.15 K, m1 = 0.00988): 1483.8 ± 1.6 m/s; speed of sound (293.15 K, m1 = 0.02034): 1484.8 ± 1.6 m/s; speed of sound (293.15 K, m1 = 0.03199): 1486 ± 1.6 m/s; speed of sound (293.15 K, m1 = 0.03929): 1486.6 ± 1.6 m/s; speed of sound (293.15 K, m1 = 0.04992): 1487.6 ± 1.6 m/s; speed of sound (293.15 K, m1 = 0.05925): 1488.4 ± 1.6 m/s; mass density (293.15 K, m1 = 0.00988): 998.597 ± 0.26 kg/m3; mass density (293.15 K, m1 = 0.02034): 998.988 ± 0.26 kg/m3; mass density (293.15 K, m1 = 0.03199): 999.418 ± 0.26 kg/m3; mass density (293.15 K, m1 = 0.03929): 999.672 ± 0.26 kg/m3; mass density (293.15 K, m1 = 0.04992): 1000.05 ± 0.26 kg/m3; mass density (293.15 K, m1 = 0.05925): 1000.37 ± 0.26 kg/m3; speed of sound (298.15 K, m1 = 0.00988): 1497.7 ± 1.6 m/s; speed of sound (298.15 K, m1 = 0.02034): 1498.7 ± 1.6 m/s; speed of sound (298.15 K, m1 = 0.03199): 1499.8 ± 1.6 m/s; speed of sound (298.15 K, m1 = 0.03929): 1500.5 ± 1.6 m/s; speed of sound (298.15 K, m1 = 0.04992): 1501.3 ± 1.6 m/s; speed of sound (298.15 K, m1 = 0.05925): 1502.3 ± 1.6 m/s; mass density (298.15 K, m1 = 0.00988): 997.445 ± 0.26 kg/m3; mass density (298.15 K, m1 = 0.02034): 997.829 ± 0.26 kg/m3; mass density (298.15 K, m1 = 0.03199): 998.253 ± 0.26 kg/m3; mass density (298.15 K, m1 = 0.03929): 998.509 ± 0.26 kg/m3; mass density (298.15 K, m1 = 0.04992): 998.883 ± 0.26 kg/m3; mass density (298.15 K, m1 = 0.05925): 999.196 ± 0.26 kg/m3; speed of sound (303.15 K, m1 = 0.00988): 1510 ± 1.6 m/s; speed of sound (303.15 K, m1 = 0.02034): 1511 ± 1.6 m/s; speed of sound (303.15 K, m1 = 0.03199): 1512.1 ± 1.6 m/s; speed of sound (303.15 K, m1 = 0.03929): 1512.8 ± 1.6 m/s; speed of sound (303.15 K, m1 = 0.04992): 1513.6 ± 1.6 m/s; speed of sound (303.15 K, m1 = 0.05925): 1514.2 ± 1.6 m/s; mass density (303.15 K, m1 = 0.00988): 996.042 ± 0.26 kg/m3; mass density (303.15 K, m1 = 0.02034): 996.428 ± 0.26 kg/m3; mass density (303.15 K, m1 = 0.03199): 996.847 ± 0.26 kg/m3; mass density (303.15 K, m1 = 0.03929): 997.099 ± 0.26 kg/m3; mass density (303.15 K, m1 = 0.04992): 997.471 ± 0.26 kg/m3; mass density (303.15 K, m1 = 0.05925): 997.795 ± 0.26 kg/m3; speed of sound (308.15 K, m1 = 0.00988): 1520.7 ± 1.6 m/s; speed of sound (308.15 K, m1 = 0.02034): 1521.7 ± 1.6 m/s; speed of sound (308.15 K, m1 = 0.03199): 1522.8 ± 1.6 m/s; speed of sound (308.15 K, m1 = 0.03929): 1523.5 ± 1.6 m/s; speed of sound (308.15 K, m1 = 0.04992): 1524.4 ± 1.6 m/s; speed of sound (308.15 K, m1 = 0.05925): 1525.1 ± 1.6 m/s; mass density (308.15 K, m1 = 0.00988): 994.425 ± 0.26 kg/m3; mass density (308.15 K, m1 = 0.02034): 994.806 ± 0.26 kg/m3; mass density (308.15 K, m1 = 0.03199): 995.225 ± 0.26 kg/m3; mass density (308.15 K, m1 = 0.03929): 995.477 ± 0.26 kg/m3; mass density (308.15 K, m1 = 0.04992): 995.846 ± 0.26 kg/m3; mass density (308.15 K, m1 = 0.05925): 996.165 ± 0.26 kg/m3; speed of sound (313.15 K, m1 = 0.00988): 1529.8 ± 1.6 m/s; speed of sound (313.15 K, m1 = 0.02034): 1530.7 ± 1.6 m/s; speed of sound (313.15 K, m1 = 0.03199): 1531.8 ± 1.6 m/s; speed of sound (313.15 K, m1 = 0.03929): 1532.4 ± 1.6 m/s; speed of sound (313.15 K, m1 = 0.04992): 1533.3 ± 1.6 m/s; speed of sound (313.15 K, m1 = 0.05925): 1534.1 ± 1.6 m/s; mass density (313.15 K, m1 = 0.00988): 992.605 ± 0.26 kg/m3; mass density (313.15 K, m1 = 0.02034): 992.98 ± 0.26 kg/m3; mass density (313.15 K, m1 = 0.03199): 993.389 ± 0.26 kg/m3; mass density (313.15 K, m1 = 0.03929): 993.638 ± 0.26 kg/m3; mass density (313.15 K, m1 = 0.04992): 993.998 ± 0.26 kg/m3; mass density (313.15 K, m1 = 0.05925): 994.316 ± 0.26 kg/m3
